# Laboratory results published in patent publication US20060165732A1, “Fungal antigens and eosinophil activity” (priority 2002, published 2006).
# Columns and labels:
# Human eosinophils = experiment: Eosinophil degranulation measured by EDN release (RIA); format: cell-based
# Experimental: The ability to induce eosinophilic degranulation was measured by EDN release. Human eosinophils were isolated from normal volunteers and volunteers reporting past allergies, hay fever, and/or asthma by Percoll density gradient centrifugation and magnetic cell sorting using MACS anti-CD16 microbeads as described by Hansel et al. (1991, J. Immunol. Methods, 145:105). Briefly, after peripheral blood was overlaid on an isotonic Percoll solution (1.084 g/ml; Sigma), the blood was centrifuged at 1000×g for 30 minutes at 4° C. Mononuclear cells at the interface were removed, and erythrocytes in the sediment were lysed by two cycles of hypotonic water lysis. Isolated granulocytes were washed twice with PIPES buffer (25 mM PIPES, 50 mM NaCl, 5 mM KCl, 25 mM NaOH, 5.4 mM glucose, pH 7.4) containing 1% bovine calf serum (Hyclone Laboratories; Logan, Utah). Cells were then incubated with an equal volume of anti-CD16-conjugated magnetic beads (Miltenyi Biotec, Auburn, Calif.) for 30 minutes at 4° C. with occasional gentle mixing. After 30 minutes of incubation on ice, cells were loaded onto a separation column positioned in the strong magnetic field of the MACS. Cells were eluted three times with 5 mL of PIPES buffer containing 1% bovine calf serum. The purity of eosinophils, as counted by Randolph's stain, was regularly >98%. Purified eosinophils were used immediately for experiments.
# To monitor eosinophil degranulation, 200 μL of freshly isolated eosinophils were resuspended in HBSS with 25 mM HEPES and 0.01% gelatin at 5×10^5 cells/mL and incubated with the a particular fungal extract. […] To quantitate eosinophil degranulation, the concentration of one of the eosinophil granule proteins in the sample supernatants, EDN, was measured by specific RIA, as described previously (Horie & Kita, 1994, J. Immunol., 152:5457). […] Total cellular EDN was measured in parallel supernatants from cells lysed with Nonidet P-40 detergent (Sigma Chemical Co.). […]
# eosinophils = experiment: Intracellular calcium [Ca^2+]i in eosinophils (indo-1, flow cytometer); format: cell-based, human; details: 100 μg/mL extract or 10 ng/mL IL-5, 37° C.
# Experimental: Real time changes in cytosolic free Ca^2+ (intracellular Ca^2+ concentration ([Ca^2+]i)) were measured in a flow cytometer using the fluorescent calcium indicator indo-1 (Rabinovitch et al., 1986, J. Immunol., 137:952; Grynkiewicz et al., 1985, J. Biol Chem., 260:3440). Indicator was introduced into cells by incubating 1 mL of eosinophils at a concentration of 1 to 2×10^6 cells/mL with 3 μM indo-1/AM (Molecular Probes, Eugene, Oreg.) in phenol red-free RPMI 1640 medium supplemented with 10% alpha calf serum and 10 mM HEPES for 30 minutes at 37° C. After washing, cells were suspended in RPMI with 0.1% HSA and 10 mM HEPES at 1×10^6 cells/mL. To measure [Ca^2+]i, cells were stimulated with 100 μg/mL Alternaria culture extract or 10 ng/mL IL-5, and fluorescence was analyzed by a FACS analyzer equipped with an ion-argon laser (Becton Dickinson). [Ca^2+]i was monitored on the basis of the ratio of the fluorescence of the calcium-bound indo-1 emission (401 nm) and the free indo-1 emission (475 nm). In addition, the [Ca^2+] in the medium can be manipulated to determine the effect on [Ca^2+]i.
# [1] = tested on: Human peripheral blood eosinophils; experiment: IL-8 production by eosinophils (ELISA); format: cell-based; details: 0.01 μg/mL, 24 hours
# Experimental: Human peripheral blood eosinophils can produce and release proinflammtory cytokines including IL-8. Eosinophils were incubated with 50 μg/mL or 100 μg/mL of Alternaria, or with 0.01 μg/mL IL-5, and the amount of IL-8 was measured. Purified eosinophils (1 mL at 1×10^6 cells/mL) were cultured in RPMI 1640 medium supplemented with 10% BCS in the presence of Alternaria or IL-5 using 48-well tissue culture plates (Costar, Cambridge, Mass.). After incubating the eosinophils with Alternaria or IL-5 for 24 hours at 37° C. in an atmosphere of 5% CO2, cell free supernatants were collected and frozen at −20° C. The concentrations of IL-8 in the supernatants were measured using an ELISA kit (Quantikine IL-8 Immunoassay Kit, R&D Systems, Minneapolis, Minn.). The threshold sensitivity of the kit was 4 pg/mL.
substance,measurement,setting,value
IL-5: cytokine used as reference stimulus of eosinophil degranulation,EDN release,Human eosinophils; 10 ng/mL,52.1±6.5 ng EDN/10^6 cells
same,"EDN release, eosinophils from allergy patients versus normal individuals",Human eosinophils; 100 μg/mL Alternaria culture extracts or 10 ng/mL IL-5,no difference
same,EDN release at 4° C.,Human eosinophils; incubation at 4° C. for 3 hours,abrogated EDN release
same,change in [Ca^2+]i,eosinophils,no elevation of [Ca^2+]i
same,IL-8 production from eosinophils,[1],very little IL-8
